According to patent publication US11052092B2, “N-{[2-(piperidin-1-yl)phenyl](phenyl)methyl}-2-(3-oxo-3,4-dihydro-2H-1,4-benzoxazin-7-yl)acetamide derivatives and related compounds as ROR-gamma modulators for treating autoimmune diseases” (Genfit, priority 2017, dated 2021):

Columns and labels:
[1] = test system: Murine EL-4 lymphoma cell line overexpressing human RORγt; assay: IL-17 secretion from EL4 murine lymphoma; assay type: cell-based; conditions: Mus musculus; human RORγt-transfected EL4 cells, PMA (10 ng/mL) and ionomycin (1 μM), 24 h; read-out: IC50, IL-17 secretion inhibition
Outline: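 EL-4 cells electroporated with hRORγt plasmid, seeded at 150000 cells/well and pretreated with compound for 24 h, then stimulated with PMA (10 ng/mL) plus ionomycin (1 μM final) with compound for a further 24 h at 37 °C. IL-17 in supernatant measured by HTRF or ELISA.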

[2] = target: T1, human RORγt (Homo sapiens, UniProt P51449); assay: RORE Luciferase/RORγt transactivation assay; assay type: cell-based; conditions: COS-7 cells transfected with human IL-17 promoter luciferase reporter and RORγt plasmid; 20 h with compound; read-out: IC50, RORγt activity inhibition
T1 construct: the full-length cDNA of human RORγt; expressed in transfected cells; host or cells: COS-7 (monkey kidney)
T1 sequence (P51449 1-497 isoform P51449-2): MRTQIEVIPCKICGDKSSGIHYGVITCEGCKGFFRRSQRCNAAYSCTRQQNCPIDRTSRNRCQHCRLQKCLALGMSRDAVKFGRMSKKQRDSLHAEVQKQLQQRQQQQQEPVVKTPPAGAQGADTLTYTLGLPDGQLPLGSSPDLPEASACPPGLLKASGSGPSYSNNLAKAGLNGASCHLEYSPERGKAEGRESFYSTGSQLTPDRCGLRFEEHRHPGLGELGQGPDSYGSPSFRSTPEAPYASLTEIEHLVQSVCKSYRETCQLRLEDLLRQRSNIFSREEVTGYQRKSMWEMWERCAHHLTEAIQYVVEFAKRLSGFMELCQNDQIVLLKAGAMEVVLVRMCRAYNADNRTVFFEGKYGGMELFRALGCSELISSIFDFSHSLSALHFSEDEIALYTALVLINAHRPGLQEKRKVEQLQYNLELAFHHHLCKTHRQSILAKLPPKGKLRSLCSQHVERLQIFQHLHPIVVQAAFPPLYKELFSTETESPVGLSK
Outline: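 COS-7 cells were transiently co-transfected with a human IL-17 promoter (RORE/CNS)–luciferase reporter and a RORγt expression plasmid, then seeded at 10000 cells/well in serum-free, phenol red-free DMEM. Compounds were added at 0.3% DMSO final. Luciferase was read with Steady-Glo, and IC50 and Emax were derived.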

[3] = test system: MOG-induced EAE mice; assay: Experimental Autoimmune Encephalomyelitis (EAE) study; assay type: in vivo, C57BL/6 mice
Text: 8-10 week old, female C57BL/6 mice were purchased from Janvier Lab (St Berthevin, France) and housed for one week before the start of the studies. EAE was induced by immunization with an emulsion of peptide antigen MOG35-55 (Myelin Oligodendrocyte Glycoprotein) ([…], SEQ ID NO: 1) in complete Freund's Adjuvant (CFA), followed by administration of Pertussis Toxin (PTX) in PBS on the day of immunization and day 1 post immunization, following manufacturer recommendation (Hooke, Kit MOG35-55/CFA Emulsion PTX). Animals were treated with drug beginning 2 days before peptide injection. Animals were randomized into groups for treatment by weight, so that the average weight of each group was similar. The groups were segregated by cage. Compounds according to the invention were suspended in Labrafil (M1944 CS) by sonication and animals were dosed twice daily by gavage with 5 mL/kg body weight. The daily doses of Cpd.24 were 30 and 60 mg/kg (b.i.d.) by gavage. […]
Data are expressed as (FIG. 4A) mean (+/−SEM) of clinical score for each group per day and (FIG. 4B). […]
Statistical evaluation of differences between the experimental groups was determined by using two-way Anova followed by a Bonferroni post test. **p<0.005, Vehicle compared with treatments.

## Cc1ccc(C(NC(=O)Cc2ccc3c(c2)CC(=O)N3)c2ccc(C)o2)c(N2CCCCC2)c1 (stereo not shown) [Cpd. 24, N-{[4-methyl-2-(piperidin-1-yl)phenyl](5-methylfuran-2-yl)methyl}-2-(2-oxo-2,3-dihydro-1H-indol-5-yl)acetamide]
[1]
  IC50: < 100 nM
[2]
  IC50: 10 to 100 nM
[3]; by day 15 and maintained through in vivo protocol duration
  clinical disease score: Clinical disease score improvement was apparent
[3]; p/os at 60 mg/kg (b.i.d.) for 20 days
  onset of EAE: delay the onset of EAE
